Laboratory results as given in patent publication US10668134B2, “Dental pretreatment material and dental tissue regeneration kit” (National Center for Geriatrics and Gerontology, priority 2016, dated 2020).

Columns and labels:
[1] = system: post-pulpectomy root canal of a tooth of the canine; assay: Dental pulp regeneration after pulpectomy, allogeneic transplantation of dental pulp stem cells with root canal filler containing ALK5 inhibitor or CCR3 antagonist; assay type: in vivo, dog
Source text: For each tooth, the root canal was enlarged with #50-55 to the apex, and was washed alternately with a 5% sodium hypochlorite solution and a 3% hydrogen peroxide solution, followed by washing with physiologic saline. The root canal was completely dried with paper points, and hemorrhage was controlled. The root canal was completely closed with a temporary seal of cement and resin. After 7 to 14 days following the pulpectomy, the temporary seal was removed, and the root canal underwent alternate washing and with physiologic saline. Smearclean was then allowed to react for 2 minutes. The root canal was then further washed with physiologic saline, and dried. A root canal filler was prepared by suspending 1×10^6 allogenic dental pulp stem cells, which had been membrane-separated, in 40 μl of a scaffold (Koken Atelocollagen Implant, KOKEN CO., LTD.), and by suspending 3 μl of a 100 μg/ml G-CSF (NEUTROGIN, Chugai Pharmaceutical Co., Ltd.). Further, an ALK5 inhibitor (SB431542, 200 ng) was added to part of the root canal filler. A CCR3 antagonist (SB328437, 200 ng) was added to another part of the root canal filler. The root canal filler with the ALK5 inhibitor or the CCR3 antagonist was injected into associated root canal such that no air bubbles were involved. A hemostatic gelatin sponge (Spongel) was put on the root canal filler. The cavity was completely sealed with cement and resin. After 14 days and 60 days following the transplantation, the teeth were extracted. According to a common method, 5 μm paraffin sections of longitudinal cross section were prepared. The paraffin sections were then H-E stained to undergo morphological observation. Amounts of regenerated dental pulp of four sections were measured for each sample, and an average amount of three samples (14-day samples) or an average amount of four samples (60-day samples) was determined to be the amount of regenerated dental pulp of the respective sample. To analyze angiogenesis, the 60-day samples were immunostained with BS-1 lectin. To analyze neurite outgrowth, the 60-day samples were immunostained with PGP 9.5.

[2] = system: Eleventh-passage human periodontal ligament cells; assay: Senescence marker expression in senescent cells of human periodontal membrane (real-time RT-PCR); assay type: cell-based; conditions: 48 hours; for IL1β senescence marker expression / IL6 senescence marker expression / IL8 senescence marker expression / p16 senescence marker expression / p53 senescence marker expression: control = 1
Method: (§1) Eleventh-passage human periodontal ligament cells were plated in DMEM containing 10% FBS in collagen-coated 35 mm dishes (IWAKI) at a density of 2×10^4 cells/ml. After 20 hours, ALK5 inhibitor (SB431542) was added to final concentrations of 5 ng/μl and 10 ng/μl. Further, CCR3 antagonist (SB328437) was added to final concentrations of 5 ng/μl and 10 ng/μl. After 48 hours, mRNA was extracted, and real-time RT-PCR was performed on senescence markers, namely p16, p53, IL6, IL1b, IL8, and TNFα (Table 4).

[3] = system: Eleventh-passage human periodontal ligament cells; assay: Expression of migratory capacity-related factors in senescent cells of human periodontal membrane (real-time RT-PCR); assay type: cell-based; conditions: control = 1
Method: as §1
Real-time RT-PCR was performed on migratory capacity-related factors, namely, MMP9, MMP3, and MMP2 (Table 8) using mRNA similar to that described in 2 above.

[4] = system: Eleventh-passage human periodontal membrane cells; assay: Migratory capacity of senescent cells of human periodontal membrane (TAXIscan-FL, SDF1 gradient); assay type: cell-based; conditions: 48 hours, n=4, control 53.8 ± 4.6
Method: Eleventh-passage human periodontal membrane cells were plated in DMEM containing 10% FBS in collagen-coated 35 mm dishes (IWAKI) at a density of 2×10^4 cells/ml. After 20 hours, an ALK5 inhibitor (SB431542) was added to a final concentration of 10 ng/μl. Further, a CCR3 antagonist (SB328437) was added to a final concentration of 5 ng/μl. After 48 hours, the cells were detached, and Real-time horizontal chemotaxis analysis was performed using TAXIscan-FL (Effector Cell Institute, Tokyo) so as to measure the migratory capacity. Specifically, channels optimized (8 μm) for the size of cells are formed between a silicon plate having 6 μm pores and a glass plate, and 1 μl of treated periodontal membrane cells (10^5 cells/ml) was injected to one end portion of an associated one of the channels (n=4). Then, 1 μl of 10 ng/μl SDF1 was placed on the opposite side portion so as to form a certain constant concentration gradient. Based on the video images of migration, the number of migrating cells after 12 hours was measured.

[5] = system: HUVECs (Human Umbilical Vein Endothelial Cells); assay: Blood vessel-inducing capacity of culture supernatant of senescent dental pulp stem cells on HUVECs on matrigel; assay type: cell-based; conditions: after 5 hours, DPSC CM alone 5.9 ± 2.9 mm
Method: Non-separated 22nd-passage human dental pulp stem cells were brought into a state of 50% confluence. The medium was replaced with a serum-free medium. After 24 hours, the culture conditioned medium was collected. The supernatant was concentrated approximately 40-fold using Amicon Ultra-15 Centrifugal Filter Unit with Ultracel-3 membrane (Millipore, Billerica, Mass.) with 3-kDa molecular cut. Proteinase inhibitors (Halt™ proteinase inhibitor cocktail EDTA-free, Thermo Scientific, Rockford, Ill., USA) was added. The mixture was dispended to be stored at −80° C. Protein content was measured using Bradford Ultra™ (Expedeon, Cambridge, UK).
HUVECs (Human Umbilical Vein Endothelial Cells) (clone 7F3415) (Lonza) were cultured with EGM 2 containing 10% FBS (Lonza). Thereafter, the culture supernatant (5 μg/ml proteins) prepared in 1 above was added to DMEM, as a blood vessel-inducing medium, containing 2% FBS, 5 μg/ml heparin (Lonza), 5 μg/ml ascorbic acid (Lonza), and 5 μg/ml hydrocortisone (Lonza). Further, an ALK5 inhibitor (SB431542, 10 ng/μl) was added to a part of the resultant mixture, and a CCR3 antagonist (SB328437, 5 ng/μl) was added to another part of the resultant mixture. […] Quantitative measurement was conducted, using Suite V3 software (Leica), on the length of a formed cord or tubular lumen.

[6] = canine of middle or advanced age, 200 ng in root canal filler, after 14 days, vs filler without
[7] = canine of middle or advanced age, 200 ng in root canal filler, after 60 days, vs filler without
[8] = canine of middle or advanced age, 200 ng, after 60 days

SMILES	amount of regenerated dental pulp tissue [1, 6]	amount of regenerated dental pulp tissue [1, 7]	IL1β senescence marker expression ([2]; 5 ng/μl)	IL6 senescence marker expression ([2]; 5 ng/μl)	IL8 senescence marker expression ([2]; 5 ng/μl)	p16 senescence marker expression ([2]; 5 ng/μl)	p53 senescence marker expression ([2]; 5 ng/μl)	IL1β senescence marker expression ([2]; 10 ng/μl)	IL6 senescence marker expression ([2]; 10 ng/μl)	IL8 senescence marker expression ([2]; 10 ng/μl)	p16 senescence marker expression ([2]; 10 ng/μl)	p53 senescence marker expression ([2]; 10 ng/μl)	MMP2 expression (migratory capacity-related factor) ([3]; 5 ng/μl)	MMP3 expression (migratory capacity-related factor) ([3]; 5 ng/μl)	MMP9 expression (migratory capacity-related factor) ([3]; 5 ng/μl)	MMP2 expression (migratory capacity-related factor) ([3]; 10 ng/μl)	MMP3 expression (migratory capacity-related factor) ([3]; 10 ng/μl)	MMP9 expression (migratory capacity-related factor) ([3]; 10 ng/μl)	also measured
NC(=O)c1ccc(-c2nc(-c3ccc4c(c3)OCO4)c(-c3ccccn3)[nH]2)cc1 [ALK5 inhibitor, SB431542]	significant increase	significant increase	0.16	0.20	0.15	0.36	0.92	0.03	0.04	0.04	0.10	0.50	0.93	1.08	0.10	1.02	0.96	0.06	density of angiogenesis (BS-1 lectin) [1, 8]: significant increase; TNFα mRNA expression ([2]; 5 ng/μl and 10 ng/μl added): significantly suppressed; number of migrating cells after 12 hours, Average ± SD ([4]; final concentration 10 ng/μl): 21.3 ± 10.9; Length of New Blood Vessel ([5]; DPSC CM + 10 ng/μl): 13.2 ± 2.6 mm
COC(=O)[C@H](Cc1ccc([N+](=O)[O-])cc1)NC(=O)c1cccc2ccccc12 [CCR3 antagonist, SB328437]	significant increase	significant increase	0.09	0.09	0.12	0.14	0.56	0.31	0.20	0.26	0.30	0.92	0.54	2.34	0	0.75	0.54	0.63	neurite outgrowth (PGP 9.5) [1, 8]: significant increase; amount of regenerated dental pulp tissue ([1]; canine of young age, 200 ng, after 14 days): did not cause any significant increase; number of migrating cells after 12 hours, Average ± SD ([4]; final concentration 5 ng/μl): 23.3 ± 10.7; Length of New Blood Vessel ([5]; DPSC CM + 5 ng/μl): 2.8 ± 0.3 mm
